# Measurements: PubChem BioAssay AID1053155 (Broad Institute, 2014)
# Target: Low-density lipoprotein receptor (Homo sapiens) (UniProt P01130)
# Test: increase of LDL receptor protein in hepatoma cells – cell-based, HepG2, ELISA, plate reader, cherry-pick, orthogonal assay for Trib1 inducer project, dose response (AID 1053155)
# Details: HepG2 LDLR protein ELISA, 24 h; for fold induction: measured here: max LDLR protein fold induction, stronger effect = higher value
# Low-density lipoprotein receptor (Homo sapiens), sequence (P01130 whole entry, looked up): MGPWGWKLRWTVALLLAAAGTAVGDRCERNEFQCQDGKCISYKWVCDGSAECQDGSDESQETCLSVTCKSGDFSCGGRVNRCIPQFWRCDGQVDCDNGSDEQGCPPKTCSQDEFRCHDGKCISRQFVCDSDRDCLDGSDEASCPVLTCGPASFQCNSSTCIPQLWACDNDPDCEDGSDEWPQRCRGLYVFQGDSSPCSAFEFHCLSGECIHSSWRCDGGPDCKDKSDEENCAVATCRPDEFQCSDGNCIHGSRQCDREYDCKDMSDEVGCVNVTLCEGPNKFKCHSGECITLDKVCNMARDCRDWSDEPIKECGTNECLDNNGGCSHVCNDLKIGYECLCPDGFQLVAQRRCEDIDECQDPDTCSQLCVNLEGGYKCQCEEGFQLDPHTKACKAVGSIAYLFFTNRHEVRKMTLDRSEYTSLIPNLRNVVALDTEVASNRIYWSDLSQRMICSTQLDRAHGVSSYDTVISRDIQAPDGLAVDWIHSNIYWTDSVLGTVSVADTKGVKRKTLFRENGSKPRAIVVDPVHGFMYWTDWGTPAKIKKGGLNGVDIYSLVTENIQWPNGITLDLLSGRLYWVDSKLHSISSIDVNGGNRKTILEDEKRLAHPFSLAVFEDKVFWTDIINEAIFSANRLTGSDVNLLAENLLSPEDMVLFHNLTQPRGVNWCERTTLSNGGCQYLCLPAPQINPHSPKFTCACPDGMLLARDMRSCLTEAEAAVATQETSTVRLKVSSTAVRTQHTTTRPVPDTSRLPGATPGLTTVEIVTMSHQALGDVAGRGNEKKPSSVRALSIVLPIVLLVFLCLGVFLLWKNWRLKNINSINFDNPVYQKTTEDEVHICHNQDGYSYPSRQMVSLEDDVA
AC50 [µM],fold induction,SMILES
18,3.3,CN1C(=O)c2cc(NC(=O)c3ccc(C(F)(F)F)cc3)ccc2OC[C@@H]2O[C@@H](CC(=O)NC3Cc4ccccc4C3)CC[C@@H]21
0.55,4.6,CN1C(=O)c2cc(NC(=O)c3ccc(C(F)(F)F)cc3)ccc2OC[C@@H]2O[C@H](CC(=O)NC3Cc4ccccc4C3)CC[C@@H]21
